The source of these data is ChEMBL document CHEMBL6134888, “Challenging the "Undruggable"─Targeting STAT3 but Identifying Potent TrkA-Targeted Inhibitors” (J Med Chem, 2025).

For one experiment, the system named is MDA-MB-231. Kind of experiment: Cytotoxicity against human MDA-MB-231 cells assessed as effect on cell viability incubated for 72 hrs by resazurin based analysis. As to conditions: MDA-MB-231, 72 h. For orientation: Resazurin is reduced to fluorescent resorufin, in cell work by metabolically active cells.
The test system of a further experiment is LS174T. Kind of experiment: Cytotoxicity against human LS174T cells assessed as effect on cell viability incubated for 72 hrs by resazurin based analysis.
In a further experiment the test system is KM12. Kind of experiment: cells. As to conditions: Homo sapiens, KM12, 72 h.
For experiment [1], the target named is Signal transducer and activator of transcription 3 (Homo sapiens) (UniProt P40763). Description: Induction of thermal stabilization of recombinant STAT3 (127 to 668 residues)(unknown origin) assessed as reduction in fluorescence intensity incubated for 3 hrs by SYPRO orange dye based DSF analysis. As to conditions: dose 100.0 µM. On the technique in general: In DSF a fluorescence change marks the thermal transition of the protein.

Experiment [2] shares this target. Description: Induction of thermal stabilization of STAT3 (unknown origin) at 100 uM by thermal shift assay.
Experiment [3] shares this target. Kind of experiment: Binding affinity to STAT3 (unknown origin) SH2 domain by FP assay.
Experiment [4] concerns the target T1, High affinity nerve growth factor receptor (Homo sapiens, UniProt P04629). As to conditions: dose 100.0 nM.
Description: Inhibition of TRKA (unknown origin) at 100 nM relative to control
Experiment [5] has as its target T1, High affinity nerve growth factor receptor. As to conditions: dose 100.0 nM. The source holds these as a separate data set.
Description: Inhibition of TRKA (unknown origin) at 100 nM ScanElect kinase assay relative to control
The target of experiment [6] is L-lactate dehydrogenase A chain (Homo sapiens, UniProt P00338). Kind of experiment: Inhibition of LDHA (unknown origin).
Experiment [7] addresses Signal transducer and activator of transcription 3 (Homo sapiens) (UniProt P40763). Kind of experiment: Inhibition of STAT3 in oncostatin M-stimulated human U3A cells at 20 uM pretreated with compound for 1 hr followed by oncostatin M induction and measured after 6 hrs by luciferase assay relative to control. The format is cell-based.
Experiment [8] has the same target. Description: Induction of thermal stabilization of recombinant STAT3 (127 to 668 residues)(unknown origin) assessed as change in melting temperature incubated for 3 hrs by SYPRO orange dye based DSF analysis.
The target is the same in experiment [9]. Description: Induction of thermal stabilization of recombinant STAT3 (127 to 668 residues)(unknown origin) incubated for 3 hrs by SYPRO orange dye based DSF analysis. As to conditions: dose 10-100 µM.
Experiment [10] deals with BDNF/NT-3 growth factors receptor (Homo sapiens, UniProt Q16620). Kind of experiment: Binding affinity to TRKB (unknown origin) assessed as dissociation constant by KINOMEscan assay.
The target in experiment [11] is Proto-oncogene tyrosine-protein kinase Src (Homo sapiens, UniProt P12931). Description: Inhibition of SRC (unknown origin) by Z-LYTE Kinase assay.
Experiment [12] deals with Tyrosine-protein kinase JAK2 (Homo sapiens, UniProt O60674). Kind of experiment: Inhibition of JAK2 (unknown origin) by Z-LYTE Kinase assay.
For experiment [13], the target named is T1, High affinity nerve growth factor receptor. As to conditions: dose 100.0 nM. This is another data set of the same source.
Description: Inhibition of TRKA (unknown origin) at 100 nM by Z-LYTE Kinase assay relative to control
Experiment [14] has the same target. As to conditions: dose 10.0 nM.
Description: Inhibition of TRKA (unknown origin) at 10 nM by Z-LYTE Kinase assay relative to control

By IC50 is commonly meant the concentration that inhibits the measured activity by half. As a reminder, the inhibition is the change of the read-out against control, counted positive when it falls. Broadly, the ΔTm is the shift of the melting midpoint relative to a reference. A word on the Kd: it is a measure of binding affinity in units of concentration.

Structures are written as SMILES. Calls of active or inactive are those of the source. No cut-off for these calls is given here. Where only a bound is given, the exact number is not on record here.

T1 sequence (P04629 33-796 limits assumed): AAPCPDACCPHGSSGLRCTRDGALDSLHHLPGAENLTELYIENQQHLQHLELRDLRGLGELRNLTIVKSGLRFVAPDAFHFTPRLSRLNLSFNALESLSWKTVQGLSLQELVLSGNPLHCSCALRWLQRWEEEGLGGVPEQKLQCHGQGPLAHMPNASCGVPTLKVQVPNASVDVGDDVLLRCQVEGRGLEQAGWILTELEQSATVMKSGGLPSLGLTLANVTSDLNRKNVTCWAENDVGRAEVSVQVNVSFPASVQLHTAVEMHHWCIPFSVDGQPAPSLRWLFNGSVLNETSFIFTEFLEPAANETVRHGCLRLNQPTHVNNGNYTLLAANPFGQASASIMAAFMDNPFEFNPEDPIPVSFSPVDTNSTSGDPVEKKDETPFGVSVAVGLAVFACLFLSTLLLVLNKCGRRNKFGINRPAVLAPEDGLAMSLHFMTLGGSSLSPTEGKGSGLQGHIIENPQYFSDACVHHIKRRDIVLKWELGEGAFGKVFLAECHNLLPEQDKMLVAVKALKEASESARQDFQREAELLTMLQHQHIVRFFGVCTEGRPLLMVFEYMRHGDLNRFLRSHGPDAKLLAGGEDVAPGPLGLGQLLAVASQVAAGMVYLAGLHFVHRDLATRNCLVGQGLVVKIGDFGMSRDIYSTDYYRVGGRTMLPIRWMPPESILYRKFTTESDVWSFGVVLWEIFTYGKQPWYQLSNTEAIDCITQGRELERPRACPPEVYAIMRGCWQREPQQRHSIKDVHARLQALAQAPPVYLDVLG
Chain of Signal transducer and activator of transcription 3 (Homo sapiens) (P40763 whole entry, the tested form may be a part): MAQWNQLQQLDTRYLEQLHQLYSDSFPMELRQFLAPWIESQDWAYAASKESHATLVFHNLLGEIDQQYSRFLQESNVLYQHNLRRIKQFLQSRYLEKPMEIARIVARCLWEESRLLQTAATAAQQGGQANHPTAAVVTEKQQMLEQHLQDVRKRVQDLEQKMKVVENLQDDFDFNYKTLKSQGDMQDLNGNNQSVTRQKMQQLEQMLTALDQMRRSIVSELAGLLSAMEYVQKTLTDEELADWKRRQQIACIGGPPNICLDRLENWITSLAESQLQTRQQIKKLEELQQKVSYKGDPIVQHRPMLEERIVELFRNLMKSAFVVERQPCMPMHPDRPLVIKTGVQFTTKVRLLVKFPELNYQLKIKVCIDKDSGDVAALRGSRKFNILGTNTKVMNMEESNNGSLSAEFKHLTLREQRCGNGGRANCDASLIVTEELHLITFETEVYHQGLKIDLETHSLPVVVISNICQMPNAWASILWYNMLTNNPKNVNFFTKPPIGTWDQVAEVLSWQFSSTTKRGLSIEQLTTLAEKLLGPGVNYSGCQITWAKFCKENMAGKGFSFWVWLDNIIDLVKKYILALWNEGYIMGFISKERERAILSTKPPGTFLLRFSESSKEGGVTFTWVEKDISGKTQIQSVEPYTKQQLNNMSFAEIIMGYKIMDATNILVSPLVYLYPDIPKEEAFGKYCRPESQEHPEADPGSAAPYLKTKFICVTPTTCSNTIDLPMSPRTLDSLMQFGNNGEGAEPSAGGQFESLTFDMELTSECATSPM
Chain of Tyrosine-protein kinase JAK2 (O60674 whole entry): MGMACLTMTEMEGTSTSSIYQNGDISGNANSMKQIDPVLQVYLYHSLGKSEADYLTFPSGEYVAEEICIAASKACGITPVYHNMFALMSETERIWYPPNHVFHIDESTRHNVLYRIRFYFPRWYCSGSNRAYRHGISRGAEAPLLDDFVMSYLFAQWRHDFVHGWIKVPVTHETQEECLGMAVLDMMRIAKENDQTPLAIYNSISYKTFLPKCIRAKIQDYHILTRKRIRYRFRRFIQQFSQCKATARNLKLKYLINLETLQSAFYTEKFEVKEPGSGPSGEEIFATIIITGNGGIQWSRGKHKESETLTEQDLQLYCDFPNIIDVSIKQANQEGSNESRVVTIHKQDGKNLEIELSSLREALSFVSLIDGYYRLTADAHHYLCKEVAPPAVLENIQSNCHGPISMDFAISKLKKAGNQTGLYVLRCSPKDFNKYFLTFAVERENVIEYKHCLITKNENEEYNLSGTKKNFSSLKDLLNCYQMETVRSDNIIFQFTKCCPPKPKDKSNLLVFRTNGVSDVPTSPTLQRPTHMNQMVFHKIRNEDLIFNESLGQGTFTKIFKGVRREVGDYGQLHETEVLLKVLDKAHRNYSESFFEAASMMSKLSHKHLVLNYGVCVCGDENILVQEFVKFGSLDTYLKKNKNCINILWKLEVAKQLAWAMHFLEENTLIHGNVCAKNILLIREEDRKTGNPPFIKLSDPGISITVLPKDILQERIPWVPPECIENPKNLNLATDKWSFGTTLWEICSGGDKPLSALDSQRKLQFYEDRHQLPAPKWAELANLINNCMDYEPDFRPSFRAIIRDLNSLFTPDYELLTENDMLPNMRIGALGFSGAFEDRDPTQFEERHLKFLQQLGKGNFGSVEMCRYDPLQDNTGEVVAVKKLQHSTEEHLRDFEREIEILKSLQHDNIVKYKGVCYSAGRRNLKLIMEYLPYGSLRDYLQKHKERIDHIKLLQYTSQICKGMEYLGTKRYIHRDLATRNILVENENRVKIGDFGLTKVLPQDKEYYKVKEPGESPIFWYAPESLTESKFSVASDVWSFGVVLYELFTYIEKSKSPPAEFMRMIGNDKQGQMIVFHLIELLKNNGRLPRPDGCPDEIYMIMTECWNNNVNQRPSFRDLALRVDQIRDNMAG
Chain of Proto-oncogene tyrosine-protein kinase Src (P12931 2-536 limits assumed): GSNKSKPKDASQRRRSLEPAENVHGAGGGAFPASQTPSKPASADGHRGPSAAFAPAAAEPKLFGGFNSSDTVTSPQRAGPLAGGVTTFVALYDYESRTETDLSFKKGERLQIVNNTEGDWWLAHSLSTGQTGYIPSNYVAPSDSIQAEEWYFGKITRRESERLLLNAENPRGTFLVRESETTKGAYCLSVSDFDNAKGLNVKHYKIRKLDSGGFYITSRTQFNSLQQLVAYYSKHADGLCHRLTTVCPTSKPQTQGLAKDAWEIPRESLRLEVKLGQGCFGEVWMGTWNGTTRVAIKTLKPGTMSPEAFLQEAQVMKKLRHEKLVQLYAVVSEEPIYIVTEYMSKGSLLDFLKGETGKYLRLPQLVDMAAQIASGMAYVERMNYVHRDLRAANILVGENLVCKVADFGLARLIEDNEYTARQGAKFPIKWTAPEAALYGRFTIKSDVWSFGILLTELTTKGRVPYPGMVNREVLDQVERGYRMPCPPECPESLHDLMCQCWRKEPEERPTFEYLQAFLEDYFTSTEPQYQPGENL
Chain of BDNF/NT-3 growth factors receptor (Q16620 whole entry): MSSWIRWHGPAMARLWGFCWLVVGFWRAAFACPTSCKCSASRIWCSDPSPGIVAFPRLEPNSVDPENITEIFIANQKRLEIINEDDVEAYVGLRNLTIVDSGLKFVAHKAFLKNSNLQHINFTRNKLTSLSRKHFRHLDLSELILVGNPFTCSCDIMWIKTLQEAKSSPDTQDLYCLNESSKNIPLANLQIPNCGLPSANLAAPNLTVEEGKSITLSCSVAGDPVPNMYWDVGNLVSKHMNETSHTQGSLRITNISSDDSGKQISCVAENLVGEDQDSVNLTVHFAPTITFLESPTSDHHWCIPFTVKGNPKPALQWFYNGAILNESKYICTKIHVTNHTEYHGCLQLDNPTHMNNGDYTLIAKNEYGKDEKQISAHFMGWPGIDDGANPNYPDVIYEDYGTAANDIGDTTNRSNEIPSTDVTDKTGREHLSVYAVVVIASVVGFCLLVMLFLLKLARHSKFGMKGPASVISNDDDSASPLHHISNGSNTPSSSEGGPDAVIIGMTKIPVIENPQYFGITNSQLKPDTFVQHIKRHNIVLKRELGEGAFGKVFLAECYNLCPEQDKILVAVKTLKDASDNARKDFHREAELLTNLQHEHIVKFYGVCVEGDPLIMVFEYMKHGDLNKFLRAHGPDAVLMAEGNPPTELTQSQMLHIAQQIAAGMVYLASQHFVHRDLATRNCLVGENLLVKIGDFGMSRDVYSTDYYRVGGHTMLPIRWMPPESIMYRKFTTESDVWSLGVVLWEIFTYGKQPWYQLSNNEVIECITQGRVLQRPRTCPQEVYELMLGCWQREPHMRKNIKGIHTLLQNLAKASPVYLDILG
Description for KM12: Cytotoxicity against human KM12 cells assessed as inhibition of cell viability incubated for 72 hrs by resazurin based analysis

For `O=C(Nc1cnn2ccc(N3CCC[C@@H]3c3cc(F)ccc3F)nc12)N1CC[C@H](O)C1` [LAROTRECTINIB], the concentration for half-maximal inhibition (IC50) in the experiment with MDA-MB-231 is greater than 10 µM; in the experiment on LS174T, greater than 10 µM; with KM12, 0.0038 µM.

As for `COC(=O)c1cccc(-c2cnc(N)c(NC(C)c3ccccc3)n2)c1` (racemic), the Activity result in experiment [1] was “Dose-dependent-effect”. For the same compound, the outcome in experiment [2] and in [3] was Active. The inhibition came out at 55% in experiment [4] and 28% in experiment [5]. In [6], this compound yielded a 50% inhibitory concentration (IC50) of 4 µM.

On to `CN(C)c1cccc(-c2cnc(N)c(NCc3cccc(-c4ccccc4)c3)n2)c1`, for which the inhibition in [4] was 42%; in experiment [5], 5%.

As for `CC(Nc1nc(-c2cccc(F)c2)cnc1N)c1ccccc1` (racemic), in [1], the Activity result is “Dose-dependent-effect”. The result in [2] and in experiment [3] was Active. In experiment [5], this compound showed an inhibition of 3%.

As for `Cc1cccc(CNc2nc(-c3cccc(N(C)C)c3)cnc2N)c1`, the figures for the inhibition in experiment [4] and in experiment [5] were 26% and 6%, respectively.

In the case of `CC(Nc1nc(-c2cc(C(F)(F)F)cc(C(F)(F)F)c2)cnc1N)c1ccccc1` (racemic), in experiment [1], the Activity result was “Dose-dependent-effect”. Further, the inhibition was determined as 40% in experiment [7], 10% in experiment [4] and 4% in experiment [5]. Moreover, in [2], the result was Active. The same compound returned an IC50 in the experiment with KM12 of 5.3 µM.

`COC(=O)c1cccc(CNc2nc(-c3cccc(N(C)C)c3)cnc2N)c1`: the inhibition stood at 48% in experiment [4] and 6% in experiment [5].

With `CN(C)c1cccc(-c2cnc(N)c(NCc3ccccc3)n2)c1`, the inhibition in experiment [4] came to 79%; in experiment [5] it was 21%.

Regarding `Cc1ccc(CNc2nc(-c3cccc(N(C)C)c3)cnc2N)cc1C`, the inhibition in experiment [4] turned out to be 35%; in experiment [5], 6%.

For the compound `C[C@H](Nc1nc(-c2cc(C(F)(F)F)cc(C(F)(F)F)c2)cnc1N)c1ccccc1`, in experiment [8], the ΔTm was found to be 0.9 °C. In [9], the Activity result is “Dose-dependent-effect”.

For the compound `COc1cccc(C(C)Nc2nc(-c3cccc(N(C)C)c3)cnc2N)c1` (racemic), the inhibition in experiment [4] stood at 66%; in experiment [5] it was 41%.

In the case of `COC(=O)c1ccc(-c2cnc(N)c(NC(C)c3ccccc3)n2)cc1` (racemic), the inhibition in [5] worked out at 36%.

`CC(Nc1nc(-c2cccc(N(C)C)c2)cnc1N)c1ccc(S(C)(=O)=O)cc1` (racemic): the inhibition in experiment [4] is 46%; in [5], 4%.

In the case of `CC(Nc1nc(-c2cccc(N(C)C)c2)cnc1N)c1cccc(C(F)(F)F)c1` (racemic), the inhibition in [4] amounted to 44%; in [5], 11%.

For `CN(C)c1cccc(-c2cnc(N)c(NC(c3ccccc3)C(C)(C)C)n2)c1` (racemic), the results for the inhibition in experiment [4] and in experiment [5] were 58% and 11%, respectively.

In the case of `CN(C)c1cccc(-c2cnc(N)c(NCc3cccnc3)n2)c1`, the figures for the inhibition in experiment [4] and in experiment [5] were 50% and 31%, respectively. Also, the IC50 in the experiment on KM12 is 3.7 µM.

Turning to `COc1cccc(OC)c1-c1cnc(N)c(NC(C)c2ccccc2)n1` (racemic), the Activity result in [1] was “Dose-dependent-effect”. Also, the result in [2] and in [3] was Active. The compound further showed an inhibition in experiment [5] of 0%.

On to `CC(=O)Nc1cccc(-c2cnc(N)c(NC(C)c3ccccc3)n2)c1` (racemic), for which, in [10], the dissociation constant Kd amounted to 0.06 µM. Besides, the concentration for half-maximal inhibition (IC50) is 1.56 µM in experiment [11] and 0.361 µM in [12].

In the case of `CC(Nc1nc(-c2cccc3ccccc23)cnc1N)c1ccccc1` (racemic), the inhibition in experiment [5] was determined as 14%.

For the compound `C[C@H](Nc1nc(-c2cccc(C(=O)N(C)C)c2)cnc1N)c1ccccc1`, the values for the inhibition in [13] and in experiment [14] were 0% and 10%, respectively.

For `CC(Nc1nc(-c2ccc(F)cc2)cnc1N)c1ccccc1` (racemic), the Activity result in experiment [1] is “Dose-dependent-effect”. For the same compound, the result in experiment [2] and in experiment [3] was Active. Also, in experiment [5], the inhibition was found to be 4%.

Take `Nc1ncc(-c2cc(C(F)(F)F)cc(C(F)(F)F)c2)nc1NCc1ccco1`: the thermal shift (ΔTm) in experiment [8] was 0.9 °C. Also, the Activity result in experiment [9] is “Dose-dependent-effect”.

As to `C[C@@H](Nc1nc(-c2cc(C(F)(F)F)cc(C(F)(F)F)c2)cnc1N)c1ccccc1`, in experiment [8], the thermal shift (ΔTm) was 0.9 °C. Moreover, the Activity result in experiment [9] was “Dose-dependent-effect”.

In the case of `CC(Nc1nc(-c2cccc([N+](=O)[O-])c2)cnc1N)c1ccccc1` (racemic), the Activity result in [1] was “Dose-dependent-effect”. The result in experiment [2] and in experiment [3] was Active. Besides, the inhibition was determined as 55% in experiment [4] and 28% in experiment [5].

Consider `CC(Nc1nc(-c2cccc(C(=O)N(C)C)c2)cnc1N)c1ccccc1` (racemic), for which the inhibition in experiment [4] is 67%; in [5] it was 41%. In addition, the 50% inhibitory concentration (IC50) with KM12 was less than 0.3 µM.

In the case of `Cc1ccc(C(C)Nc2nc(-c3cccc(N(C)C)c3)cnc2N)cc1` (racemic), the inhibition turned out to be 11% in experiment [4] and 10% in experiment [5].

In experiment [5], `Cc1cc(C)cc(-c2cnc(N)c(NC(C)c3ccccc3)n2)c1` (racemic) yielded an inhibition of 2%.

In the case of `C[C@@H](Nc1nc(-c2cccc(C(=O)N(C)C)c2)cnc1N)c1ccccc1`, the inhibition is 74% in experiment [13] and 34% in experiment [14].

As for `CC(Nc1nc(-c2ccc3c(c2)OCO3)cnc1N)c1ccccc1` (racemic), the inhibition in experiment [5] was determined as 14%.

For `CC(Nc1nc(-c2ccc(-c3ccccc3)cc2)cnc1N)c1ccccc1` (racemic), in [5], the inhibition was 0%.

As for `CN(C)c1cccc(-c2cnc(N)c(NCc3cccc(C(F)(F)F)c3)n2)c1`, the inhibition worked out at 28% in experiment [4] and 4% in experiment [5].

In [5], `CC(Nc1nc(-c2cccc(O)c2)cnc1N)c1ccccc1` (racemic) showed an inhibition of 0%.

Turning to `CC(Nc1nc(-c2cc(Cl)cc(Cl)c2)cnc1N)c1ccccc1` (racemic), the Activity entry in [1] was “Dose-dependent-effect”. Besides, the outcome in experiment [2] and in [3] was Active. This compound came in with an inhibition in [5] of 0%.

For the compound `CC(Nc1nc(-c2ccc(NS(C)(=O)=O)cc2)cnc1N)c1ccccc1` (racemic), the inhibition in experiment [4] came out at 38%; in [5], 23%.

On to `COc1ccc(C(C)Nc2nc(-c3cccc(N(C)C)c3)cnc2N)cc1` (racemic), for which the inhibition in experiment [4] came out at 17%; in experiment [5] it was 7%.

Take `CCC(Nc1nc(-c2cccc(N(C)C)c2)cnc1N)c1ccccc1` (racemic): the inhibition amounted to 73% in [4] and 24% in experiment [5].

`CC(C)Oc1cccc(-c2cnc(N)c(NC(C)c3ccccc3)n2)c1` (racemic): the Activity entry in experiment [1] was “Dose-dependent-effect”. Also, the outcome in [2] and in experiment [3] was Active. For the same compound, the figures for the inhibition in experiment [4] and in experiment [5] were 21% and 2%, respectively.

As to `C[C@@H](Nc1nc(-c2cccc(N(C)C)c2)cnc1N)c1ccccc1`, the IC50 was greater than 10 µM with MDA-MB-231; greater than 10 µM in the experiment on LS174T; 1.11 µM in experiment [11]; less than 0.3 µM in the experiment on KM12; 0.53 µM in experiment [12].

In the case of `CC(Nc1nc(-c2ccccc2)cnc1N)c1ccccc1` (racemic), the inhibition worked out at 38% in experiment [4] and 2% in experiment [5].
